For data set [1], the species on record is Homo sapiens. Description: Compound was tested for PAF-induced human platelet aggregation in washed platelets. It is filed as functional, organism-based.
The species named for data set [2] is Homo sapiens. Nature of the data set: Compound was tested for PAF-induced human platelet aggregation in plasma-rich platelets. It is filed as functional, organism-based.
Data set [3] has as its system Rattus norvegicus. Nature of the data set: In vivo efficacy for inhibition of PAF-induced (10 nM/kg) extravasation in male and female rats in a dose-dependent manner. It is filed as functional.
In data set [4] the target is T1, Alpha-2A adrenergic receptor (Bos taurus) (UniProt Q28838).
T1 sequence (whole entry): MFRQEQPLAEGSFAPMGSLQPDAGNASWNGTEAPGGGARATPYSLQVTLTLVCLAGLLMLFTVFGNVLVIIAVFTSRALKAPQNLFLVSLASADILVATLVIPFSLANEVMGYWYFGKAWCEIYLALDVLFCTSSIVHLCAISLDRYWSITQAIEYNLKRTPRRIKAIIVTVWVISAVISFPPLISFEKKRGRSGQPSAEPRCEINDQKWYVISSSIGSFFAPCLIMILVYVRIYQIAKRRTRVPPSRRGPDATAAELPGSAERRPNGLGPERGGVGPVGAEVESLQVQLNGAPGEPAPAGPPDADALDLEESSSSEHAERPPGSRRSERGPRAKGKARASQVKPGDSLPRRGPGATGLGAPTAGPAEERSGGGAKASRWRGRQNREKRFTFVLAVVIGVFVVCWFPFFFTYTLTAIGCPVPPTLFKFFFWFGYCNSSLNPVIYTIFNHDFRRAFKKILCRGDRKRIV
Description: Compound was tested for it's binding affinity towards calf brain alpha 2 receptor at a concentration of 10 uM; NA means no affinity.

The subject of data set [5] is Cavia porcellus. Description: Compound was tested for it's ability to inhibit PAF-induced bronchoconstriction in male guinea pigs after intravenous dosing. The format is functional.
Data set [6] has as its target C5a anaphylatoxin chemotactic receptor 1 (Homo sapiens) (UniProt P21730). The settings on record: 1 to 10 uM.
Description: Compound was tested for it''s ability to inhibit binding of [125I]C5a radioligand to its receptor at a concentration of 1 to 10 uM; NS means no significant inhibition
Data set [7] addresses T2, Alpha-1A adrenergic receptor (Bos taurus) (UniProt P18130).
T2 sequence (whole entry): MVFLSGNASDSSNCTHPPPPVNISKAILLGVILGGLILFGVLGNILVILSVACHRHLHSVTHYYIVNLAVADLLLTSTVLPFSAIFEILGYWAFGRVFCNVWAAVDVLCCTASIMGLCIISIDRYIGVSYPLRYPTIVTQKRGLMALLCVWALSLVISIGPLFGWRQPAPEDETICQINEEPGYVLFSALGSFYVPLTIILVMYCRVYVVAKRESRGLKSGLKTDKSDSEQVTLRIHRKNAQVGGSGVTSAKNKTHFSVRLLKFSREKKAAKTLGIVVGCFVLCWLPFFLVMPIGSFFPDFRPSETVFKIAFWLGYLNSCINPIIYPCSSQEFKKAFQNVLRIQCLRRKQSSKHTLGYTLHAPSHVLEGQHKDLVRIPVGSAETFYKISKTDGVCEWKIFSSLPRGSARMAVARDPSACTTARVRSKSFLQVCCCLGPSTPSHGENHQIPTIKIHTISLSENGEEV
Nature of the data set: Compound was tested for it's binding affinity towards calf brain alpha 1 receptor at a concentration of 10 uM; NA means no affinity.

Data set [8] deals with Cavia porcellus. Nature of the data set: Compound was tested for it's ability to inhibit PAF-induced bronchoconstriction in female guinea pigs after intravenous dosing. It is filed as functional.
The species entered for data set [9] is Homo sapiens. Description: The compound was tested for PAF-induced degranulation in preincubated isolated human neutrophils. It is filed as functional.
The species entered for data set [10] is Homo sapiens. Description: Compound was tested for human platelet aggregation induced by ADP at concentrations from 1 to 10 uM; NE means no effect. The format is functional, organism-based.
The target of data set [11] is Beta-1 adrenergic receptor (Cavia porcellus) (UniProt B0FL73). Nature of the data set: Compound was tested for it's binding affinity towards guinea pig heart Beta-1 adrenergic receptor at a concentration of 10 uM; NA means no affinity.
Beta-1 adrenergic receptor (Cavia porcellus), sequence (B0FL73 1-467): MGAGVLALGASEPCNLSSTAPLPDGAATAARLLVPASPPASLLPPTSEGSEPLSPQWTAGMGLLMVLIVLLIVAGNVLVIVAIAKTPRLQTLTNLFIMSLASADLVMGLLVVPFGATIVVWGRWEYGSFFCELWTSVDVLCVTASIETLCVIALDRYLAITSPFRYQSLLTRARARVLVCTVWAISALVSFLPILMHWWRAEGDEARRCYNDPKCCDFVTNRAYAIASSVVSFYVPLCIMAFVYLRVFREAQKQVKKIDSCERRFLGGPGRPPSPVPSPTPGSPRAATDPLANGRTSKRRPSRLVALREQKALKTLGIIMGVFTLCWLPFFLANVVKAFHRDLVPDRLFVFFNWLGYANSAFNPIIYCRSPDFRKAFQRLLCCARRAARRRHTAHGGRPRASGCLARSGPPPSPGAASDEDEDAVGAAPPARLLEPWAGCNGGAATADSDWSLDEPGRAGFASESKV
The target in data set [12] is Leukotriene B4 receptor 1 (Homo sapiens) (UniProt Q15722). The settings on record: 1 to 10 uM.
Leukotriene B4 receptor 1 (Homo sapiens), sequence (Q15722 whole entry, looked up): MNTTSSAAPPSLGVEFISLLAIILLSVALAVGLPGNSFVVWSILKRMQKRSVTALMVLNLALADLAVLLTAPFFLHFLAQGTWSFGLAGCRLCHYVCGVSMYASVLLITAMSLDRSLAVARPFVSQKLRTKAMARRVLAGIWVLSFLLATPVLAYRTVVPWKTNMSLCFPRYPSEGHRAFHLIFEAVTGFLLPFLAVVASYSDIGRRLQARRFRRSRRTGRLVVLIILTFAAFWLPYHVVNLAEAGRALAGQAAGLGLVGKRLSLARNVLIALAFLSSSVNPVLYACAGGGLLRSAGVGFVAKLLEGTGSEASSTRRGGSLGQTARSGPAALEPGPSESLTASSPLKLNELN
The species named for data set [13] is Homo sapiens. Nature of the data set: Compound was tested for human platelet aggregation induced by vasopressin at concentrations from 1 to 10 uM; NE means no effect. It is filed as functional, organism-based.
Data set [14] has as its target Beta-2 adrenergic receptor (Cavia porcellus) (UniProt Q8K4Z4). Description: Compound was tested for it's binding affinity towards guinea pig lung Beta-2 adrenergic receptor at a concentration of 10 uM; NA means no affinity.
The test system of data set [15] is Rattus norvegicus. Nature of the data set: In vivo efficacy for increased plasma N-acetyl-beta-D-glucosaminidase (NAGA) activity in male and female rats in a dose-dependent manner. It is filed as functional.
The species entered for data set [16] is Homo sapiens. Nature of the data set: Compound was tested for human platelet aggregation induced by thromboxane A2 agonist U-44,069 at concentrations from 1 to 10 uM; NE means no effect. It is filed as functional, organism-based.
Data set [17] is described as follows: Half-life in rhesus monkeys by intravenous administration of dose. It is filed as ADME, organism-based. The settings on record: cercopithecidae, in vivo.

Calls of active or inactive are those of the source. The calls are words filed in the database; no cut-off is given here.

C5a anaphylatoxin chemotactic receptor 1 (Homo sapiens), sequence (P21730 whole entry, looked up): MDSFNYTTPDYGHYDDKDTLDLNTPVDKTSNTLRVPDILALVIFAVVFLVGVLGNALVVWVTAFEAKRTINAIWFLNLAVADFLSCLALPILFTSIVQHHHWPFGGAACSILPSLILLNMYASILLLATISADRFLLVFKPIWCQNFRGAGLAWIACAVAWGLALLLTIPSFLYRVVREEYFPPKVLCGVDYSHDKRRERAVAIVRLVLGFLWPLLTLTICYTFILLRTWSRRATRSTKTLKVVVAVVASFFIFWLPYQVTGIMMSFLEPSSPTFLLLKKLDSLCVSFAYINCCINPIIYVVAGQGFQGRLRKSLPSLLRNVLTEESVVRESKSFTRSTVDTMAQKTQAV
Beta-2 adrenergic receptor (Cavia porcellus), sequence (Q8K4Z4 whole entry, looked up): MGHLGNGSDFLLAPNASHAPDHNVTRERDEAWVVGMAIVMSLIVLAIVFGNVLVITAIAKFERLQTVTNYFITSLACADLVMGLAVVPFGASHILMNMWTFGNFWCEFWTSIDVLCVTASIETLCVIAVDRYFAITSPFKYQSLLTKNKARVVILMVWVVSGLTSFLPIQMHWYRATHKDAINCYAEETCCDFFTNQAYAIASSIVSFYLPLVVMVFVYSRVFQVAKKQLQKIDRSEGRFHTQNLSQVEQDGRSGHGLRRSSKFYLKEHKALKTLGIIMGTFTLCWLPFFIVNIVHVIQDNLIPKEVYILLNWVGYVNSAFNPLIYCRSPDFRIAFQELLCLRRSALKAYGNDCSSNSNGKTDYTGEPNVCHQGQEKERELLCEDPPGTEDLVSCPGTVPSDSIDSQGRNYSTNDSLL

As for `CCCOc1c(OC)cc([C@@H]2CC[C@@H](c3cc(OC)c(OC)c(OC)c3)O2)cc1S(=O)(=O)CCO`, the IC50 (as a rule, the concentration that gives 50% inhibition) was 1.5 nM in the data set filed under Homo sapiens [1], 56 nM in the data set filed under Homo sapiens [2] and 4 nM in the data set listed under Homo sapiens [9]. The ED50 (in general, the midpoint of the dose-response relation) in the data set with Rattus norvegicus [3] was 2.3 mg/kg; in the data set on Cavia porcellus [5], 0.19 mg/kg; with Cavia porcellus [8], 0.1 mg/kg; with Rattus norvegicus [15] it was 0.1 mg/kg. Also, the Affinity entry in data set [4], in data set [7], in data set [11] and in [14] was “inactive” in each case. In addition, the inhibition result in data set [6] and in data set [12] was “inactive” in each case. Also, the outcome in the data set listed under Homo sapiens [10], in the data set listed under Homo sapiens [13] and in the data set listed under Homo sapiens [16] was inactive.

In the case of `COc1cc([C@H]2CC[C@H](c3cc(OC)c(OC)c(OC)c3)O2)cc(OC)c1OC`, in data set [17], the half-life – broadly, the time in which the quantity being followed falls by half – was 14 min.

Values taken from ChEMBL document CHEMBL1125858, “Synthesis and biological activity of MK 287 (L-680,573): a potent, specific and orally active paf receptor antagonist” (Bioorg Med Chem Lett, 1991).
